{"source": "patent US20200015498A1", "about": "“ANIMAL FEED WITH BETA ADRENERGIC AGONIST AND ISOQUINOLINE ALKALOID” (priority 2017, published 2020)", "type_in_all_cases": "in vivo", "key": {"pigs [1]": {"test_system": "pigs", "assay": "Second experiment: 4 groups of 50 pigs fed different food and additive combinations for 4 weeks until slaughter day", "text": "In the second experimental test, 4 groups of 50 pigs were fed with different food and additive combinations for 4 weeks until slaughter day as presented in the table below. The Isoquinoline alkaloids in the feed of groups 2 and 3 mainly consisted of sanguinarine."}, "pigs [2]": {"test_system": "pigs", "assay": "Third experiment: meat quality classes of 120 pigs per group fed for the last four weeks until slaughter day", "procedure": "The following table illustrates meat quality indicators obtained for 120 pigs fed for the last four weeks until slaughter day added with a beta adrenergic agonist at recommended dosages of 7.5 mg/kg feed and having a protein enriched feed formulation comparing to 120 other pigs fed during the same time period with the same feed which in addition the beta adrenergic agonist is also added with isoquinoline alkaloids like sanguinarin.\n(§1) In most countries of the world, the quality of the carcass (without innards and blood) is determined as of muscle area, fat mm at back, total analysis of fat content etc. for determining the price of the carcass per kg warm or cold carcass weight (depending on country). For this purpose, the animals are scanned in the slaughtering line by means of sensors or image-giving techniques, and the proportion of muscles and the thickness of the backbone are measured and converted into an equation which then calculates the proportion of lean meat in the entire carcass. In the EU, the carcasses can be assigned to different meat quality groups according to the following classification scheme: • S=Highest quality=>60.85% lean-meat • E=Premium Quality=58.75% lean-meat • U=High Quality=>55.9% lean-meat • R=Medium Quality=>53.9% lean-meat • O=Low Quality=>51.1% lean-meat • P=very low Quality=<51.1% lean-meat"}, "pigs [3]": {"test_system": "pigs", "assay": "Fourth experiment: 1500 pigs in four groups fed AFC1-AFC4, distribution in meat quality classes", "procedure": "as §1\nAs a rule, during the last 4-week before slaughter day when beta adrenergic agonists are typically administered, an animal feed is administered which not only has a higher protein content but also a higher proportion of muscle-binding amino acids (e.g., lysine). For example, a manufacturer of a beta adrenergic agonist prescribes that the content of the limiting amino acid lysine and threonine in the feed must be about 30% higher than under “standard” conditions when the beta adrenergic agonist is administered. It is, however, known that only 30% of the amino acids added to the feed are resorbed and metabolized, the rest being lost.\nThe test was performed with 1500 pigs divided into four groups 1-4, each group comprising 375 pigs. The pigs were held in 100 units of 15 animals per unit. Different groups of pigs were fed with feeds of different compositions. The following table illustrates meat quality indicators.\n(§2) The following animal feed compositions were administered: • AFC1: Corn, maize, soybean meal, vitamine, enzyme and mineral mixture comprising: 17% protein 0.8% lysine • AFC2: Corn, maize, Corn, maize, soybean meal, vitamine, enzyme and mineral mixture comprising: 17% protein, 0.8% lysine and 1 mg isoquinoline alkaloid/kg feed (mainly sanguinarine) • AFC3: Corn, maize, soybean meal, vitamine, enzyme and mineral mixture comprising: 19% protein, 1% lysine and a beta adrenergic agonist (ractopamin as “Paylean®” in recommended dosage (®=reg. trademark of Eli Lilly and Co.) • AFC4: Corn, maize, soybean meal, vitamine, enzyme and mineral mixture comprising: 17% protein, 0.9% lysine, 1 mg isoquinoline alkaloid (mainly sanguinarine)/kg feed and a beta adrenergic agonist (ractopamin as “Paylean®” Paylean in recommended dosage)"}, "pigs [4]": {"test_system": "pigs", "assay": "Fifth experiment: test four repeated with 1700 pigs of a different farm", "procedure": "as §1, §2\nTest four was repeated with 1700 pigs of a different farm divided into four groups 1-4, each group comprising 425 pigs. The pigs were held in units of 25 animals. Different groups of pigs were fed with feeds of different compositions as described for the fourth experiment. The following table illustrates meat quality indicators."}, "pigs [5]": {"test_system": "pigs", "assay": "Sixth experiment: test four repeated with 1310 pigs of a further animal farm", "procedure": "as §1, §2\nTest four was repeated with 1310 pigs of a further animal farm divided into four groups 1-4, each group comprising 330 pigs. The pigs were held in 11 units of 30 animals. Different groups of pigs were fed with feeds of different compositions as described for the fourth experiment. The following table illustrates meat quality indicators."}, "[6]": {"conditions": "class E >58.75 % lean-meat, 120 pigs per group"}, "[7]": {"conditions": "class O >51.10 % lean-meat, 120 pigs per group"}, "[8]": {"conditions": "class P <51.10 % lean-meat, 120 pigs per group"}, "[9]": {"conditions": "class R >53.90 % lean-meat, 120 pigs per group"}, "[10]": {"conditions": "class U >55.90 % lean-meat, 120 pigs per group"}, "[11]": {"conditions": "class O >51.1% lean-meat, feeds AFC2, AFC3, AFC4, control 4"}, "[12]": {"conditions": "class P <51.1% lean-meat, feeds AFC2, AFC3, AFC4, control 0"}}}
{"compound": "CC(CCc1ccc(O)cc1)NCC(O)c1ccc(O)cc1", "note": "(stereo not drawn) [ractopamine]", "values": [{"measurement": "Feed conversion ratio", "setting": "pigs [1]; 4 weeks until slaughter, isoquinoline alkaloids 1 mg/kg feed and/or ractopamin 7.5 mg/kg feed, control 2.78", "value": 2.62}, {"measurement": "Daily weight gain", "setting": "pigs [1]; 4 weeks until slaughter, isoquinoline alkaloids 1 mg/kg feed and/or ractopamin 7.5 mg/kg feed, control 753", "value": 852, "unit": "g"}, {"measurement": "live mass at slaughter day", "setting": "pigs [1]; after 4 weeks, isoquinoline alkaloids 1 mg/kg feed and/or ractopamin 7.5 mg/kg feed, soybean 15% (group 2), 17% (group 3), 20% (group 4), control 118", "value": 125.5, "unit": "kg"}, {"measurement": "Fraction lean meat", "setting": "pigs [1]; at slaughter, isoquinoline alkaloids 1 mg/kg feed and/or ractopamin 7.5 mg/kg feed, control 54.95", "value": 58.5, "unit": "%"}, {"measurement": "performance (daily weight gain, feed utilization, lean meat content) compared with the control group, in words", "setting": "pigs [1]; second experiment, groups 2-4 versus group 1", "value": "significantly improves performance and increases the lean meat content and the feed utilization"}, {"measurement": "% of all pigs in meat quality class E", "setting": "pigs [2]; [6]", "value": 41, "unit": "%"}, {"measurement": "Number of pigs in meat quality class E", "setting": "pigs [2]; [6]", "value": 49}, {"measurement": "% of all pigs in meat quality class O", "setting": "pigs [2]; [7]", "value": 1, "unit": "%"}, {"measurement": "Number of pigs in meat quality class O", "setting": "pigs [2]; [7]", "value": 1}, {"measurement": "% of all pigs in meat quality class P", "setting": "pigs [2]; [8]", "value": 0, "unit": "%"}, {"measurement": "Number of pigs in meat quality class P", "setting": "pigs [2]; [8]", "value": 0}, {"measurement": "% of all pigs in meat quality class R", "setting": "pigs [2]; [9]", "value": 6, "unit": "%"}, {"measurement": "Number of pigs in meat quality class R", "setting": "pigs [2]; [9]", "value": 7}, {"measurement": "% of all pigs in meat quality class S", "setting": "pigs [2]; class S >60.85 % lean-meat, 120 pigs per group", "value": 33, "unit": "%"}, {"measurement": "Number of pigs in meat quality class S", "setting": "pigs [2]; class S >60.85 % lean-meat, 120 pigs per group, ractopamin 7.5 mg/kg feed, protein enriched feed", "value": 40}, {"measurement": "% of all pigs in meat quality class U", "setting": "pigs [2]; [10]", "value": 19, "unit": "%"}, {"measurement": "Number of pigs in meat quality class U", "setting": "pigs [2]; [10]", "value": 23}, {"measurement": "numbers of S and E carcass classes as highest value carcasses", "setting": "pigs [2]; third experiment, sum of classes S and E", "value": 74, "unit": "%"}, {"measurement": "Distribution of slaughtered pigs in meat quality class E", "setting": "pigs [3]; class E >58.75% lean-meat, feeds AFC2, AFC3, AFC4, control 35", "value": 39, "unit": "%"}, {"measurement": "Distribution of slaughtered pigs in meat quality class O", "setting": "pigs [3]; [11]", "value": 1, "unit": "%"}, {"measurement": "Distribution of slaughtered pigs in meat quality class P", "setting": "pigs [3]; class P <51.1% lean-meat, feeds AFC2, AFC3, AFC4, control 1", "value": 0, "unit": "%"}, {"measurement": "Distribution of slaughtered pigs in meat quality class R", "setting": "pigs [3]; class R >53.9% lean-meat, feeds AFC2, AFC3, AFC4, control 10", "value": 2, "unit": "%"}, {"measurement": "Distribution of slaughtered pigs in meat quality class S", "setting": "pigs [3]; class S >60.85% lean-meat, Group 2 feed AFC2, Group 3 AFC3, Group 4 AFC4, 375 pigs per group, control 35", "value": 38, "unit": "%"}, {"measurement": "Distribution of slaughtered pigs in meat quality class U", "setting": "pigs [3]; class U >55.9% lean-meat, feeds AFC2, AFC3, AFC4, control 15", "value": 20, "unit": "%"}, {"measurement": "% of all pigs distributed in classes S and E", "setting": "pigs [3]; fourth experiment, control 70%", "value": 77, "unit": "%"}, {"measurement": "Distribution of slaughtered pigs in meat quality class E", "setting": "pigs [4]; class E >58.75% lean-meat, feeds AFC2, AFC3, AFC4, control 30", "value": 35, "unit": "%"}, {"measurement": "Distribution of slaughtered pigs in meat quality class O", "setting": "pigs [4]; [11]", "value": 2, "unit": "%"}, {"measurement": "Distribution of slaughtered pigs in meat quality class P", "setting": "pigs [4]; [12]", "value": 0, "unit": "%"}, {"measurement": "Distribution of slaughtered pigs in meat quality class R", "setting": "pigs [4]; class R >53.9% lean-meat, feeds AFC2, AFC3, AFC4, control 15", "value": 8, "unit": "%"}, {"measurement": "Distribution of slaughtered pigs in meat quality class S", "setting": "pigs [4]; class S >60.85% lean-meat, Group 2 feed AFC2, Group 3 AFC3, Group 4 AFC4, 425 pigs per group, control 26", "value": 40, "unit": "%"}, {"measurement": "Distribution of slaughtered pigs in meat quality class U", "setting": "pigs [4]; class U >55.9% lean-meat, feeds AFC2, AFC3, AFC4, control 25", "value": 15, "unit": "%"}, {"measurement": "% of all pigs (carcasses classified as S and E quality)", "setting": "pigs [4]; fifth experiment, control 56%", "value": 75, "unit": "%"}, {"measurement": "Distribution of slaughtered pigs in meat quality class E", "setting": "pigs [5]; class E >58.75% lean-meat, feeds AFC2, AFC3, AFC4, control 33", "value": 38, "unit": "%"}, {"measurement": "Distribution of slaughtered pigs in meat quality class O", "setting": "pigs [5]; [11]", "value": 1, "unit": "%"}, {"measurement": "Distribution of slaughtered pigs in meat quality class P", "setting": "pigs [5]; [12]", "value": 0, "unit": "%"}, {"measurement": "Distribution of slaughtered pigs in meat quality class R", "setting": "pigs [5]; class R >53.9% lean-meat, feeds AFC2, AFC3, AFC4, control 11", "value": 3, "unit": "%"}, {"measurement": "Distribution of slaughtered pigs in meat quality class S", "setting": "pigs [5]; class S >60.85% lean-meat, Group 2 feed AFC2, Group 3 AFC3, Group 4 AFC4, 330 pigs per group, control 30", "value": 40, "unit": "%"}, {"measurement": "Distribution of slaughtered pigs in meat quality class U", "setting": "pigs [5]; class U >55.9% lean-meat, feeds AFC2, AFC3, AFC4, control 22", "value": 18, "unit": "%"}, {"measurement": "% of all pigs (carcasses classified as S and E quality)", "setting": "pigs [5]; sixth experiment, control 63%", "value": 78, "unit": "%"}]}
